Measured values reported in patent publication US11707442B2, “Antibacterial and antifungal compounds” (The General Hospital Corporation, priority 2015, dated 2023).
“Also recorded” adds a separate entry of the source.

Experiments:
C. albicans = experiment: Static versus cidal assessment (MFC); type: cell-based, Candida albicans; conditions: result in words
Procedure: The minimum fungicidal concentration was (MFC) was determined as follows: 10 μl of yeast culture from each micro-well of the MIC assay was plated on YPD agar and incubated at 35° C. overnight. The lowest compound concentration at which there was no fungal colony growth was considered the MFC.

C. albicans biofilm = experiment: Biofilm growth on silicone pads; type: cell-based, Candida albicans; conditions: result in words
Procedure: C. albicans were grown in YPD medium overnight at 30° C., diluted to an OD600 of 0.5 in 2 mL Spider medium, and added to a well of a sterile 12-well plate containing a silicone pad measuring 1.5×1.5 cm that had been pretreated overnight with bovine serum (Sigma-Aldrich). The inoculated 12-well plate was incubated with gentle agitation (150 rpm) for 90 min at 37° C. for adhesion to occur. The samples were washed with 2 ml PBS, and after the 90-min incubation, and PBS wash, auranofin was added to fresh media at 4 μg/ml (n=4), 8 μg/ml (n=4), 16 μg/ml (n=4), and 32 μg/ml (n=4).
Control groups were included that contained C. albicans alone in Spider medium without auranofin (n=4) and a negative control group of Spider medium without any fungal cells (n=4).
The silicone pads with biofilm were removed from the wells, dried overnight, and weighed the following day. The total biomass (mg) of each biofilm was calculated by subtracting the weight of the platform material prior to biofilm growth from the weight after the drying period and adjusting for the weight of a control pad exposed to no cells.
Statistical significance among the different groups was determined by the analysis of variance (ANOVA) and the Tukey test using the Graph Pad Prism Program.

S. aureus = experiment: Disc clearing assay; type: cell-based, Staphylococcus aureus; conditions: result in words
Procedure: (§1) Disc clearing assay: The disc diffusion test was performed on Mueller Hinton (MH) agar plates for bacterial cultures and yeast extract, peptone, dextrose (YPD) for fungal cultures. The assay was repeated 3 times. Discs were soaked in 10 μl of either DMSO or 10 mg/ml compound stock solution and air-dried. Three hundred microliters of an overnight culture of bacteria or fungi were spread on plates. After completely drying the agar plate in a laminar flow hood, DMSO or compound impregnated discs were overlaid on the plate and incubated at 35° C. for 18 hrs.
The disc diffusion test was carried out in triplicate on cation-adjusted Miller-Hinton agar. 6 mm discs were impregnated with 50 μg of compounds and air-dried. Three hundred microliters of an overnight S. aureus MW2 culture was spread on an agar plate and air-dried. The antimicrobial discs were overlaid on the plate and incubated at 37° C. for 20 hrs.

[1] = tested on: S. aureus, E. faecium, and A. baumannii; experiment: Static versus cidal assessment (MBC); type: cell-based; conditions: result in words
Procedure: Static versus cidal assessment: The minimum bactericidal concentration (MBC) was determined as follows: 10 μl of bacterial culture from each micro-well of the MIC assay was plated on MH agar and incubated at 35° C. overnight. The lowest compound concentration at which there was no bacterial colony growth was considered the MBC.

E. faecalis = experiment: Disc clearing assay; type: cell-based, Enterococcus faecalis; conditions: result in words
Procedure: as §1

E. faecium [2] = experiment: Disc clearing assay; type: cell-based, Enterococcus faecium; conditions: result in words
Procedure: as §1

MRSA strain MW2 = experiment: Checkerboard assay (combination); type: cell-based, Staphylococcus aureus; conditions: result in words
Procedure: (§2) Checkerboard assay (e.g., antibiotic synergy test): The antimicrobial or antifungal activity of a combination of a compound of present application with other agents was determined through a checkerboard assay. The checkerboard method for determining synergy of synthetic retinoids with conventional antibiotics can be conducted, for example, as previously described (See, e.g., Rajamuthiah, R. et al. A defensin from the model beetle Tribolium castaneum acts synergistically with telavancin and daptomycin against multidrug resistant Staphylococcus aureus. PLoS ONE 10, e0128576 (2015)) The compounds whose combinations were being tested were arrayed in serial concentrations, vertically for one compound and horizontally for the other compound in the same 96 well microplate. 2-fold serial dilutions of each retinoid were combined with 2-fold serial dilutions of each conventional antibiotic, which created an 8×8 matrix in a 96-well microtiter plate. The rest of the procedure involving addition of pathogen and measurement of growth was carried out as described for measurement of MIC.
The Fractional Inhibitory Concentration (FIC) index for two compounds, A and B, is defined by the following equation: FIC=((A/MIC^A)+(B/MIC^B)). MIC^A and NIC^B are MICs of compound A or B respectively. (A) is the lowest concentration of compound A in combination with compound B that inhibits growth of a pathogen and (B) is the lowest concentration of compound B that inhibits growth of a pathogen.
Optical densities at 600 nm were measured after 18 h of incubation at 37° C. The results represent three independent experiments.

[3] = Checkerboard assay of auranofin with amphotericin B and fluconazole; type: cell-based; conditions: result in words
Procedure: as §2
(§3) The Fractional Inhibitory Concentration (FIC) index for two compounds, A and B, is defined by the following equation: FIC=((A/MIC^A)+(B/MIC^B)). MIC^A and NIC^B are MICs of compound A or B respectively. […]

A. baumannii = experiment: Disc clearing assay; type: cell-based, Acinetobacter baumannii; conditions: result in words
Procedure: as §1

C. parapsilosis = experiment: Disc clearing assay; type: cell-based, Candida parapsilosis; conditions: result in words
Procedure: as §1

C. neoformans [4] = experiment: Disc clearing assay; type: cell-based, Cryptococcus neoformans; conditions: impregnated filter; result in words
Procedure: as §1

C. neoformans [5] = experiment: Checkerboard assay with oxidizing agents; type: cell-based, Cryptococcus neoformans; conditions: result in words
Procedure: as §2, §3

C. glabrata = experiment: Disc clearing assay; type: cell-based, Candida glabrata; conditions: result in words
Procedure: as §1

B. subtilis = experiment: Disc clearing assay; type: cell-based, Bacillus subtilis; conditions: result in words
Procedure: as §1

C. tropicalis = experiment: Disc clearing assay; type: cell-based, Candida tropicalis; conditions: result in words
Procedure: as §1

E. faecium [6] = experiment: Checkerboard assay with glutathione; type: cell-based, Enterococcus faecium; conditions: result in words
Procedure: as §2, §3

Row | SMILES | static versus cidal activity against C. albicans (C. albicans) | C. albicans biofilm formation (C. albicans biofilm) | zone of inhibition, S. aureus (S. aureus) | static versus cidal nature of the inhibition [1] | zone of inhibition, E. faecalis (E. faecalis) | zone of inhibition, E. faecium (E. faecium [2]) | interaction with hydrogen peroxide (MRSA strain MW2; S. aureus) | interaction with amphotericin B and fluconazole [3] | zone of inhibition, A. baumannii (A. baumannii) | zones of inhibition, C. parapsilosis (C. parapsilosis) | clearing of C. neoformans (C. neoformans [4]) | MIC change in the presence of menadione (C. neoformans [5]) | interaction with diamide and hydrogen peroxide (C. neoformans [5]) | zones of inhibition, C. glabrata (C. glabrata) | zone of inhibition, B. subtilis (B. subtilis) | zones of inhibition, C. tropicalis (C. tropicalis) | inhibition of E. faecium by the agent alone (E. faecium [6]) | inhibition of S. aureus by the agent alone (MRSA strain MW2)
1 | CC[P](CC)(CC)=[Au][S][C@@H]1O[C@H](COC(C)=O)[C@@H](OC(C)=O)[C@H](OC(C)=O)[C@H]1OC(C)=O [Auranofin, 2,3,4,6-tetra-o-acetyl-1-thio-D-glucanpyranosato-S-(triethyl-phosphine)-gold] | fungistatic | not significantly reduced | zone of inhibition | bacteriostatic at the MIC concentration but bactericidal at higher concentrations | clearing; also recorded: zone of inhibition | zone of inhibition | did not provide any synergistic activity | additive effects but not synergism | zone of inhibition | zones of inhibition | clearing | no change in MIC | additive effect | zones of inhibition | clearing; also recorded: zone of inhibition | zones of inhibition |  | 
2 | N[C@@H](CCC(=O)N[C@@H](CS)C(=O)NCC(=O)O)C(=O)O [Glutathione] |  |  |  |  |  |  |  |  |  |  |  |  |  |  |  |  | did not inhibit | did not inhibit
